What was measured:
[1] = system: ethylene binding site in tobacco leaves; assay: Ethylene binding (14C-ethylene) in tobacco leaves, incl. Scatchard DACP-ethylene competition; set-up: species or system Nicotiana tabacum L.; details: for Binding (% of untreated control), Tobacco leaves, Dark / Binding (% of untreated control), Tobacco leaves, Light: measured 48 hours after exposure
Protocol: (§1) Plant material was exposed to ^14 C-ethylene in the presence or absence of unlabeled ethylene. Usually exposure was for two hours. After this time, material was aired for two minutes and placed in 250 or 500 ml jars containing mercury perchlorate in liquid scintillation vials which also contained fiberglass filter to increase the surface area for 24 hours. The vials were then removed, scintillation fluid added and the samples counted in a liquid scintillation counter. All measurements were corrected for unbound ethylene. When the number of binding sites inactivated by DACP in the light were desired, samples were aired 48 hours before measuring ethylene binding to allow the DACP not undergoing a light reaction to diffuse away.
(§2) Experiments in the Examples below were carried out under normal laboratory fluorescent lights. The light intensity was 560 lux at the laboratory bench level. Normally treatment was inside 2.5 liter desiccators and the amount of light reaching the plant material was measured to average 448 lux or 80% of the incident light. When more light was needed, desiccators were moved to a position where the intensity was 2700 lux outside the desiccators. The amount of light reaching the plant material was measured to be 2160 lux.
Tobacco leaves (Nicotiana tabacum L.) were grown in a greenhouse. Leaves were harvested when approximately 10 cm in length, the midrib removed and allowed to stand overnight for wound ethylene to subside. After incubating tobacco leaves with DACP for three hours under fluorescent lights at 448 lux of fluorescent light, some of the ethylene binding site present, as assayed by ^14 C-labeled ethylene disappears. As the concentration of DACP increases, the amount of binding site remaining decreases. The curve (FIG. 1) appears to be biphasic with a decrease of 80% of binding between 0 and 40 μl/l at DACP. Addition of an additional 80 μl/l of DACP reduced binding further 10%. […] In all previous cases, compounds diffused from the binding site with a half life of three to six hours.
(§3) Scatchard plots are used to determine the binding constants of compounds. An underlying assumption using this method is that the reaction is reversible. Using DACP in the light leads to an irreversible complex and the Scatchard plot is not valid. It can be made and compared with the competition in the dark to evaluate the relative effectiveness of the compound in the light versus dark. FIGS. 6 and 7 represent plots for tobacco leaves and mung bean sprouts in the light and in the dark. It can be seen from these two figures that there are apparently two classes of sites present in both tobacco leaves and mung bean sprouts. The values are much lower in the light which would be expected if the site is being permanently removed. A greater portion of the binding sites appears to be occupied in the competition experiments (FIGS. 6, 7) than in experiments in which added ethylene is not present (FIGS. 3, 4, 5).

[2] = system: Carnation; assay: Cut flower longevity, carnation; assay type: in vivo, Dianthus caryophyllus; details: volatile DACP
[3] = system: Cut purple petunias; assay: Cut flower longevity, petunias; assay type: in vivo, Petunia hydrida; details: volatile DACP
Protocol: Cut purple petunias (Petunia hydrida) are treated with volatile DACP in the same manner as described above.

[4] = system: mung bean seedlings; assay: Growth inhibition of mung bean seedlings by ethylene; assay type: in vivo, Vigna radiata L.
Protocol: Mung beans (Vigna radiata L.) were germinated in the dark for four days. At this point 10-12 sprouts were placed in 3 liter containers, and treated with DACP and ethylene as indicated in the individual Examples below. Ethylene was changed each day and seedlings were retreated with DACP at seven days. The height was measured at ten days. […]

[5] = system: ethylene binding site in mung bean sprouts; assay: Ethylene binding (14C-ethylene) in mung bean sprouts, incl. Scatchard DACP-ethylene competition; set-up: species or system Vigna radiata L.; details: for Binding (% of untreated control), Mung bean sprouts, Dark / Binding (% of untreated control), Mung bean sprouts, Light: measured 24 hours after exposure
Protocol: as §1
Mung beans (Vigna radiata L.) were germinated in the dark for four days. At this point 10-12 sprouts were placed in 3 liter containers, and treated with DACP and ethylene as indicated in the individual Examples below. Ethylene was changed each day and seedlings were retreated with DACP at seven days. The height was measured at ten days. Light was 560 lux throughout the experiment after the four-day germination in the dark.
as §2, §3

[6] = system: beans; assay: Ethylene-induced leaf abscission in beans; assay type: in vivo, Phaseolus vulgaris; details: DACP vapor
[7] = system: Potted poinsettia; assay: Protection of potted poinsettia from ethylene; assay type: in vivo, Euphorbia pulcherima; details: volatile DACP
Protocol: Potted poinsettia (Euphorbia pulcherima) is treated with volatile DACP in the same manner as described above, and then exposed to ethylene to determine if the DACP would protect the poinsettia from the ethylene.

[8] = system: Tomato fruit; assay: Tomato ripening (red/green reflectance ratio); assay type: in vivo, Lycopersicon esculentum, Mill; details: 25° C.
Protocol: Plant Material. Tomatoes (Lycopersicon esculentum, Mill) were obtained from a wholesale distributor.
Chemicals. DACP was prepared as previously described and kept as a 4-8% solution in hexane. Treatment was in a 3 l container. DACP was pipetted as a hexane solution onto paper towel to facilitate evaporation. After sealing, the containers were kept in darkness or exposed to 448 lux of fluorescent light for 24 hours. After 24 hours, containers were aired out for 24 hours. Those containers kept in darkness were aired in darkness. Subsequently the ethylene treatment was started and all samples were kept in 448 lux of fluorescent light. The gas phase was changed each day.
Ripening. Ripening was measured with an Agtron reflectance spectrophotometer (Magnson Engineers, Inc., Instruments Division, San Jose, Calif.) which measures the ratio of red/green light reflected from the tomato.

[9] = system: ethylene binding; details: Plant Growth Reg. 9, 157-164 (1990); cited from earlier work
[10] = DARK, DACP 120 ul/l + 10 μl/l E
[11] = DARK, DACP 120 ul/l as a gas, no ethylene
[12] = LIGHT, DACP 120 ul/l + 10 μl/l E
[13] = LIGHT, DACP 120 ul/l + 100 μl/l E
[14] = LIGHT, DACP 120 ul/l as a gas, no ethylene

[N-]=[N+]=C1C=CC=C1 [Diazocyclopentadiene]
Binding (% of untreated control), Tobacco leaves, Dark [1]: 100 % of untreated control
Binding (% of untreated control), Tobacco leaves, Light [1]: 27 % of untreated control
further reduction of binding ([1]; additional 80 μl/l of DACP, three hours at 448 lux (FIG. 1), 180 min): 10%
decrease of binding ([1]; between 0 and 40 μl/l DACP, three hours at 448 lux fluorescent light (FIG. 1), 180 min): 80%
half life of reappearance of the binding site after DACP is removed ([1]; in the dark, 245 μl/l (gas) DACP (FIG. 2A)): about 15 hours
binding site after incubation with DACP ([1]; incubated in darkness, 245 μl/l (gas) DACP (FIG. 2A)): most of the binding site disappears
reappearance of the binding site after DACP is removed ([1]; leaves preincubated in the light before removing the DACP (FIG. 2A)): does not reappear or if it does it does so only very slowly over many days
amount of binding site after 24 additional hours ([1]; same leaves re-assayed without retreating with DACP): appears to remain constant
amount of binding site inactivated, prebound DACP versus DACP present during the light treatment ([1]; two hours DACP in the dark, aired one hour, then light): No difference
longevity of the flower [2]: likewise found to increase
longevity of the flower [3]: found to increase
% of Control [4, 10]: 16 % of Control
Height (cm) [4, 10]: 1.5 cm
% of Control [4, 11]: 94 % of Control
Height (cm) [4, 11]: 9.0 cm
% of Control [4, 12]: 80 % of Control
Height (cm) [4, 12]: 7.6 cm
% of Control [4, 13]: 53 % of Control
Height (cm) [4, 13]: 5.0 cm
Height (cm) ([4]; LIGHT, DACP 120 ul/l + 1000 μl/l E): 2.3 cm
% of Control ([4]; LIGHT, DACP 120 ul/l + 1000 μl/l E, 14400 min): 3.6 % of Control
% of Control [4, 14]: 93 % of Control
Height (cm) [4, 14]: 8.9 cm
time in which most of the light reaction has occurred ([5]; 448 lux, presaturated site (FIG. 3)): ≤ 30 min
Binding (% of untreated control), Mung bean sprouts, Dark [5]: 100 % of untreated control
Binding (% of untreated control), Mung bean sprouts, Light [5]: 24 % of untreated control
time in which most of the decrease in binding occurs (diffusion to the binding site) ([5]; after release as a liquid (FIG. 3)): ≤ 15 min
time for 1/2 of the binding site to be regenerated ([5]; in darkness, 245 μl/l (gas) DACP (FIG. 2B)): about two
ethylene-induced leaf abscission [6]: found to prevent ethylene-induced leaf abscission
signs of injury from DACP [7]: No signs of injury
death of the flowers (cyanthum) in response to ethylene ([7]; then exposed to ethylene): died in response to the ethylene in the controls but not on the DACP treated plants
time by which all of the tomatoes were nearly ripe ([8]; DACP in the light): ≤ 25 days
ratio of red to green ([8]; single exposure in the light, whether or not 1000 μl/l of ethylene was present (FIG. 8)): remained constant for ten days
effect on ripening ([8]; DACP applied in the dark): only a small effect
time to ripe as indicated by the red/green ratio ([8]; DACP applied in the dark): ripe in ten days

C=C [Ethylene]
Binding (% of untreated control), Tobacco leaves, Dark [1]: 100 % of untreated control
Binding (% of untreated control), Tobacco leaves, Light [1]: 100 % of untreated control
% of Control ([4]; DARK, 10 μl/l E): 16 % of Control
Height (cm) ([4]; DARK, 10 μl/l E): 1.5 cm
% of Control ([4]; LIGHT, 10 μl/l E): 16 % of Control
Height (cm) ([4]; LIGHT, 10 μl/l E): 1.5 cm
% of Control ([4]; LIGHT, 1000 μl/l E): 16 % of Control
Height (cm) ([4]; LIGHT, 1000 μl/l E): 1.5 cm
1/2 maximum of ethylene for growth inhibition (Lineweaver-Burk plot) ([4]; after exposure to DACP): 50 μl/l
Binding (% of untreated control), Mung bean sprouts, Dark [5]: 100 % of untreated control
Binding (% of untreated control), Mung bean sprouts, Light [5]: 100 % of untreated control

C1=CCC=C1 [cyclopentadiene]
blocking of ethylene binding [9]: effective blocking agent for ethylene binding

— US5100462A, “Method of counteracting ethylene response by treating plants with diazocyclopentadiene and derivatives thereof” (North Carolina State University, priority 1991, dated 1992)
